According to patent US20260335293A1, “USE OF NOVEL COMPOUND FOR TREATING INTRACTABLE DISEASES” (YJ CERAPEUTICS INC., priority 2023, published 2026):

Experiments:
astrocytes (GFAP) = assay: Astrocyte activation in spinal cord of SNI model, GFAP immunohistochemistry and Western blot; assay type: in vivo, Sprague-Dawley rats; settings: L4-5 spinal cord
mTOR pathway = mTOR pathway in SNI model, Western blot; assay type: in vivo, Sprague-Dawley rats; settings: 4 weeks after nerve injury
Protocol: FIG. 5B is a diagram showing results of analyzing the expression of factors associated with a mTOR signaling pathway in an inflammation-inhibiting mechanism in an SNI animal model by Western blot.
To determine through which signaling pathway YJ102 inhibited a neuroinflammatory response, there was analyzed increased expression and activation of histone demethylase JMJD3 and expression changes of factors associated with JAK/STAT3 pathway, mTOR pathway, and TRPM7-mediated pathway, which were known as important regulatory mechanisms and epigenetic regulators mediating the neuroinflammatory response, in the tissues of the SNI animal model 4 weeks after nerve injury.

bladder wall = assay: Bladder hypertrophy (bladder wall thickness, H&E) in SCI model; assay type: in vivo, Sprague-Dawley rats; settings: 5 mg/kg i.p., day 1 after SCI
ZO-1 = assay: Tight junction protein ZO-1 in bladder of SCI model, Western blot; assay type: in vivo, Sprague-Dawley rats; settings: SCI day 1, Western blot
Occludin = assay: Tight junction protein Occludin in bladder of SCI model, Western blot and immunofluorescence; assay type: in vivo, Sprague-Dawley rats
MPO-positive neutrophils = assay: Introduction of neutrophils (MPO) into bladder of SCI model, immunofluorescence; assay type: in vivo, Sprague-Dawley rats; settings: day 1 after SCI
[1] = test system: urothelium (TUNEL-positive cells); assay: Urothelial cell apoptosis in SCI model, TUNEL staining; assay type: in vivo, Sprague-Dawley rats; settings: day 3 after SCI; vs Vehicle
NGF / proNGF = assay: NGF mRNA and proNGF in bladder tissue of SCI model, RT-PCR and Western blot; assay type: in vivo, Sprague-Dawley rats; settings: bladder tissue after SCI
Protocol: In order to confirm the effect of YJ102 (Chemical Formula 1), a compound of the present disclosure, on urinary disturbances caused by spinal cord injury, immediately after preparing the traumatic spinal cord injury (SCI) model (FIG. 1A) prepared in Example 1 above, YJ102 was dissolved in DMSO, methyl pyrrolidinone, and water (1:1.5:1) and administered intraperitoneally at 5 mg/kg, and then intraperitoneally administered at 24-hour intervals for 7 days from the next day. Thereafter, the effect of improving bladder functions was analyzed through a residual urine volume test and a urinary bladder function score (UBFS). At this time, a Vehicle group was administered with the same amount of a solution of DMSO, methyl pyrrolidinone, and water. Specifically, in order to determine the amount of urine remaining in the bladder after spinal cord injury, bladder extrusion was performed twice a day by applying pressure to the central bottom portion of the lower abdomen using the index and middle fingers to empty the bladder, and the expelled urine was collected in a catheter and its volume was recorded. […]

[2] = test system: inflammatory cytokines and chemokines in bladder tissue; assay: Inflammatory factor expression in bladder of SCI model, RT-PCR and Western blot; assay type: in vivo, Sprague-Dawley rats; settings: bladder after SCI
Protocol: In order to confirm the effect of YJ102 (Chemical Formula 1), a compound of the present disclosure, on urinary disturbances caused by spinal cord injury, immediately after preparing the traumatic spinal cord injury (SCI) model (FIG. 1A) prepared in Example 1 above, YJ102 was dissolved in DMSO, methyl pyrrolidinone, and water (1:1.5:1) and administered intraperitoneally at 5 mg/kg, and then intraperitoneally administered at 24-hour intervals for 7 days from the next day. Thereafter, the effect of improving bladder functions was analyzed through a residual urine volume test and a urinary bladder function score (UBFS). At this time, a Vehicle group was administered with the same amount of a solution of DMSO, methyl pyrrolidinone, and water. Specifically, in order to determine the amount of urine remaining in the bladder after spinal cord injury, bladder extrusion was performed twice a day by applying pressure to the central bottom portion of the lower abdomen using the index and middle fingers to empty the bladder, and the expelled urine was collected in a catheter and its volume was recorded. In addition, the UBFS was assessed daily using a 0-4 point UBFS (0=total loss of function (manual bladder extrusion 3 times a day, bloody urine), 1=partial restoration of UBF (manual extrusion 2 times a day, bloody urine), 2=partial restoration of UBF (partial/complete release of sphincter spasm, manual extrusion once a day, persistently bloody urine), 3=high restoration (manual extrusion once a day, no bloody urine), and 4=normal UBF) as in the reference (Zeng et al., Spinal Cord (2017) 55:834-839).
To confirm the effect of YJ102 on the expression of inflammatory factors in the bladder after spinal cord injury, the expression of inflammatory cytokines and chemokines, COX-2, iNOS, IL-6, IL-1β, MIP-1α, MIP-1β, MIP-2a, and Gro-α in bladder tissue was confirmed by RT-PCR analysis and Western blot analysis using the primers in Table 2 above. In addition, even in the Raw 264.7 cell line, the expression was verified by RT-PCR analysis.

[3] = test system: skin tissue of psoriasis mouse model; assay: Epidermal layer thickness and dermal cell introduction (H&E) in IMQ psoriasis model; assay type: in vivo, C57BL/6 mouse; settings: 5 mg/kg i.p. Days 2-4, Day 6
Protocol: Psoriasis caused by excessive production of skin cells was a chronic skin disease associated with various factors, including autoimmune diseases, and its symptoms included red and thickened skin and abnormally occurring scaling. […] Specifically, the back region of a C57BL/6 mouse (male, 18 to 20 g, 8 weeks) (Daehan Biolink, Eumseong, Korea) was shaved to remove hair, and then applied with IMQ cream (83 mg/day) (5%) for consecutive 5 days from Day 0 to Day 4 to induce psoriasis-like skin inflammation, and a normal control mouse (Sham) was applied with Vaseline cream (FIG. 16A).
In order to confirm the effect of YJ102 (Chemical Formula 1), a compound of the present disclosure, on psoriasis, YJ102 dissolved in DMSO, methyl pyrrolidinone, and water (1:1.5:1) was administered intraperitoneally (5 mg/kg) for a total of 3 days on Day 2, Day 3, and Day 4, and the Vehicle group was administered in the same amount of a solution of DMSO, methyl pyrrolidinone, and water (1:1.5:1) (FIG. 16A). To assess daily skin changes, PASI scores were used for erythema and scaling. The PASI score was evaluated as a severity scale of 0 to 4, in which 0 meant none, 1 meant mild, 2 meant moderate, 3 meant severe, and 4 meant very severe. […]
On day 6, the skin tissue of the psoriasis mouse model was stained with Hematoxyline & Eosin, and the epidermal layer thickness was measured. […]

In the case of `CCc1ccc(N(C(=O)COC)c2nc3cc(Cl)ccc3o2)cc1` [YJ102], the GFAP expression (astrocytes (GFAP); Western blot) is reported as “significantly decreased”, the GFAP expression intensity (astrocytes (GFAP); immunohistochemistry) is reported as “significantly decreased” and the “activity of S6” value (mTOR pathway) is reported as “inhibiting the activity”. For the same compound, the “activity of p70S6kinase” value (mTOR pathway) was “inhibiting the activity”, the “thickness of lamina propria” value (bladder wall) was “significantly reduced” and the “thickness of muscle layer” value (bladder wall) was “significantly reduced”. For the same compound, the “thickness of urothelium layer” value (bladder wall) was “significantly reduced”, the “reduction in amount of ZO-1” value (ZO-1) was “significantly inhibited” and the “reduction in amount of Occludin” value (Occludin; SCI day 1, Western blot) was “significantly inhibited”. For the same compound, the “reduction in Occludin in the urothelium” value (Occludin; after SCI, immunofluorescence) was “inhibited”, the “introduction of MPO-positive neutrophils into the bladder” value (MPO-positive neutrophils) was “significantly inhibited” and the “number of TUNEL-positive cells in the urothelium” value [1] was “significantly reduced”. The “NGF mRNA expression” value (NGF / proNGF) was “significantly inhibited”, the proNGF production (NGF / proNGF) was “significantly inhibited” and the “expression of COX-2” value [2] was “significantly reduced”. For the same compound, the “expression of Gro-α” value [2] was “significantly reduced”, the “expression of IL-1β” value [2] was “significantly reduced” and the “expression of IL-6” value [2] was “significantly reduced”. For the same compound, the “expression of MIP-1B” value [2] was “significantly reduced”, the “expression of MIP-1 a” value [2] was “significantly reduced” and the “expression of MIP-2a” value [2] was “significantly reduced”. The “expression of iNOS” value [2] was “significantly reduced”, the “number of cells introduced into the dermal layer” value [3] was “decreased to the Sham level” and the “reduction of epidermal layer thickness compared to Vehicle group” value [3] was “approximately 35%”.
